Experimental data published in patent US11261177B2, “Benzoxazinone derivatives useful as herbicides” (REDAG CROP PROTECTION LTD, priority 2017, dated 2022).

How the values were obtained:
Format in all cases: in vivo
Lolium perenne [1] = assay: Pre-emergence herbicidal assay, 96 cell trays, glasshouse; settings: 168 h, Lollium, assessed 7 days after treatment, read-out: % control of plant growth; for pest or weed control at 200 g/ha: 0.2 kg/ha; for pest or weed control at 1000 g/ha: 1 kg/ha; for pest or weed control at 5000 g/ha: 5 kg/ha
Method: (§1) The compounds were screened at three concentrations (0.2, 1 and 5 kg/ha) against 2 weed species (Stellaria media—Chickweed and Lolium perenne). The seeds were sown in the cells of 96 cell trays (4-6 seeds per cell). For the pre-emergence assay, 75 μL of a suspension of the test compound, at the above doses, was added on top of the soil 1 day after sowing. For the post-emergence assay, the seedlings were sprayed with 200 μL of a suspension of the test compound two weeks after sowing. The formulation used is 25% acetone and 75% water/0.01% Tween 20. Each treatment was replicated three times. The plants were kept in a glasshouse (uncontrolled conditions) and assessed 7 days after treatment. A small number of compounds were tested in a first trial. A larger number of compounds were tested in a second trial. The assessment was based on the % control of plant growth in each cell.

[2] = system: Stellaria media—Chickweed; assay: as above; settings: 168 h, assessed 7 days after treatment, read-out: % control of plant growth; for pest or weed control at 200 g/ha: 0.2 kg/ha; for pest or weed control at 1000 g/ha: 1 kg/ha; for pest or weed control at 5000 g/ha: 5 kg/ha
Method: as §1

Lolium perenne [3] = assay: Post-emergence herbicidal assay, 96 cell trays, glasshouse; settings: 168 h, Lollium, assessed 7 days after treatment, read-out: % control of plant growth; for pest or weed control at 200 g/ha: 0.2 kg/ha; for pest or weed control at 1000 g/ha: 1 kg/ha; for pest or weed control at 5000 g/ha: 5 kg/ha
Method: as §1

[4] = system: Stellaria media—Chickweed; assay: as above; settings: 168 h, assessed 7 days after treatment, read-out: % control of plant growth; for pest or weed control at 200 g/ha: 0.2 kg/ha; for pest or weed control at 1000 g/ha: 1 kg/ha; for pest or weed control at 5000 g/ha: 5 kg/ha
Method: as §1

SMILES	pest or weed control at 200 g/ha (Lolium perenne [1]; second trial (Table 2)) [%]	pest or weed control at 1000 g/ha (Lolium perenne [1]; second trial (Table 2)) [%]	pest or weed control at 5000 g/ha (Lolium perenne [1]; second trial (Table 2)) [%]	pest or weed control at 200 g/ha ([2]; second trial (Table 2)) [%]	pest or weed control at 1000 g/ha ([2]; second trial (Table 2)) [%]	pest or weed control at 5000 g/ha ([2]; second trial (Table 2)) [%]	pest or weed control at 200 g/ha (Lolium perenne [3]; second trial (Table 2)) [%]	pest or weed control at 1000 g/ha (Lolium perenne [3]; second trial (Table 2)) [%]	pest or weed control at 5000 g/ha (Lolium perenne [3]; second trial (Table 2)) [%]	pest or weed control at 200 g/ha ([4]; second trial (Table 2)) [%]	pest or weed control at 1000 g/ha ([4]; second trial (Table 2)) [%]	pest or weed control at 5000 g/ha ([4]; second trial (Table 2)) [%]	also measured
C#CCN1C(=O)C2(CC2)Oc2cc(F)c(N3C(=O)C(=O)N(CCC)C3=S)cc21 [Example 2, 1-(7-Fluoro-3-oxo-4-(prop-2-yn-1-yl)-3,4-dihydrospiro[benzo[b][1,4]oxazine-2,1′-cyclopropan]-6-yl)-3-propyl-2-thioxoimidazolidine-4,5-dione]	< 20	< 20	< 20	20 to 80	20 to 80	20 to 80	< 20	< 20	< 20	20 to 80	20 to 80	20 to 80	pest or weed control at 200 g/ha (Lolium perenne [1]; first trial (Table 1)): < 20%; pest or weed control at 1000 g/ha (Lolium perenne [1]; first trial (Table 1)): < 20%; pest or weed control at 5000 g/ha (Lolium perenne [1]; first trial (Table 1)): < 20%; pest or weed control at 200 g/ha ([2]; first trial (Table 1)): 20 to 80%; pest or weed control at 1000 g/ha ([2]; first trial (Table 1)): 20 to 80%; pest or weed control at 5000 g/ha ([2]; first trial (Table 1)): 20 to 80%; pest or weed control at 200 g/ha (Lolium perenne [3]; first trial (Table 1)): < 20%; pest or weed control at 1000 g/ha (Lolium perenne [3]; first trial (Table 1)): < 20%; pest or weed control at 5000 g/ha (Lolium perenne [3]; first trial (Table 1)): < 20%; pest or weed control at 200 g/ha ([4]; first trial (Table 1)): 20 to 80%; pest or weed control at 1000 g/ha ([4]; first trial (Table 1)): 20 to 80%; pest or weed control at 5000 g/ha ([4]; first trial (Table 1)): 20 to 80%
C#CCN1C(=O)C2(CC2)Oc2cc(F)c(-n3nc(C(C)(C)C)oc3=O)cc21 [Example 3, 6-(5-(tert-Butyl)-2-oxo-1,3,4-oxadiazol-3(2H)-yl)-7-fluoro-4-(prop-2-yn-1-yl)spiro[benzo[b][1,4]oxazine-2,1′-cyclopropan]-3(4H)-one]	–	–	–	–	–	–	–	–	–	–	–	–	pest or weed control at 200 g/ha (Lolium perenne [1]; first trial (Table 1)): < 20%; pest or weed control at 1000 g/ha (Lolium perenne [1]; first trial (Table 1)): 20 to 80%; pest or weed control at 5000 g/ha (Lolium perenne [1]; first trial (Table 1)): 80 to 100%; pest or weed control at 200 g/ha ([2]; first trial (Table 1)): 20 to 80%; pest or weed control at 1000 g/ha ([2]; first trial (Table 1)): 80 to 100%; pest or weed control at 5000 g/ha ([2]; first trial (Table 1)): 80 to 100%; pest or weed control at 200 g/ha (Lolium perenne [3]; first trial (Table 1)): 20 to 80%; pest or weed control at 1000 g/ha (Lolium perenne [3]; first trial (Table 1)): 80 to 100%; pest or weed control at 5000 g/ha (Lolium perenne [3]; first trial (Table 1)): 80 to 100%; pest or weed control at 200 g/ha ([4]; first trial (Table 1)): 20 to 80%; pest or weed control at 1000 g/ha ([4]; first trial (Table 1)): 20 to 80%; pest or weed control at 5000 g/ha ([4]; first trial (Table 1)): 20 to 80%
C#CCN1C(=O)C2(CC2)Oc2cc(F)c(N3C(=O)c4ccc(F)cc4C3=O)cc21 [Example 5]	–	20 to 80	80 to 100	–	80 to 100	80 to 100	20 to 80	20 to 80	80 to 100	80 to 100	80 to 100	80 to 100	–
C#CCN1C(=O)C2(CC2)Oc2cc(F)c(N3C(=O)c4cccc(F)c4C3=O)cc21 [Example 6]	< 20	< 20	20 to 80	20 to 80	20 to 80	80 to 100	20 to 80	80 to 100	80 to 100	20 to 80	80 to 100	80 to 100	–
C#CCN1C(=O)C2(CC2)Oc2cc(F)c(N3C(=O)c4ccccc4C3=O)cc21 [Example 7]	20 to 80	80 to 100	80 to 100	80 to 100	80 to 100	80 to 100	< 20	20 to 80	20 to 80	80 to 100	80 to 100	80 to 100	–
C#CCN1C(=O)C2(CC2)Oc2cc(F)c(N3C(=O)c4ccc(O)cc4C3=O)cc21 [Example 9]	< 20	< 20	20 to 80	< 20	< 20	20 to 80	< 20	< 20	20 to 80	< 20	< 20	20 to 80	–
C#CCN1C(=O)C2(CC2)Oc2cc(F)c(N3C(=O)c4ccc(OC)cc4C3=O)cc21 [Example 10]	< 20	< 20	< 20	20 to 80	80 to 100	80 to 100	< 20	< 20	< 20	20 to 80	80 to 100	80 to 100	–
C#CCN1C(=O)C2(CC2)Oc2cc(F)c(N3C(=O)C4CC4C3=O)cc21 (stereo not shown) [Example 13]	< 20	< 20	20 to 80	20 to 80	80 to 100	80 to 100	< 20	< 20	< 20	80 to 100	80 to 100	80 to 100	–
C#CCN1C(=O)C2(CC2)Oc2cc(F)c(N3C(=O)C=C(C(F)(F)F)C3=O)cc21 [Example 14]	< 20	< 20	< 20	< 20	< 20	< 20	< 20	< 20	< 20	< 20	< 20	< 20	–
COC(=O)C(C)N1C(=O)C2(CC2)Oc2cc(F)c(N3C(=O)c4ccc(F)cc4C3=O)cc21 (stereo not shown) [Example 16]	< 20	20 to 80	20 to 80	80 to 100	80 to 100	80 to 100	20 to 80	20 to 80	80 to 100	80 to 100	80 to 100	80 to 100	–
COC(=O)C(C)N1C(=O)C2(CC2)Oc2cc(F)c(N3C(=O)C=C(C(F)(F)F)C3=O)cc21 (stereo not shown) [Example 17]	< 20	20 to 80	20 to 80	20 to 80	20 to 80	80 to 100	< 20	< 20	< 20	< 20	20 to 80	20 to 80	–
